From ChEMBL document CHEMBL4431388, “Molecular docking studies and synthesis of novel bisbenzimidazole derivatives as inhibitors of α-glucosidase” (Bioorg Med Chem, 2016) come the findings set out here.

One experiment relates to Saccharomyces cerevisiae. The experiment in a line: Inhibition of baker's yeast alpha-glucosidase at 300 uM using p-nitrophenyl alpha-D-glucopyranoside as substrate preincubated for 15 mins followed by substrate addition measured for 20 mins by spectrophotometric analysis relative to control.
Experiment [1] can be described thus: Inhibition of baker's yeast alpha-glucosidase using p-nitrophenyl alpha-D-glucopyranoside as substrate preincubated for 15 mins followed by substrate addition measured for 20 mins by spectrophotometric analysis. Also on record: species or system Saccharomyces cerevisiae.

One may read the inhibition as the share of the control response that was lost under treatment. In general, IC50 refers to the concentration that gives 50% inhibition.

On to `CCOC(=O)Cn1c(-c2nc3ccc([N+](=O)[O-])cc3n2CC(=O)OCC)nc2ccc([N+](=O)[O-])cc21`, for which, in the experiment on Saccharomyces cerevisiae, the inhibition amounted to 85.8%. The compound also gave an IC50 in experiment [1] of 6690 nM.
Consider `c1ccc(Nc2nnc(Cn3c(-c4nc5ccccc5n4Cc4nnc(Nc5ccccc5)s4)nc4ccccc43)s2)cc1`, for which the inhibition in the experiment with Saccharomyces cerevisiae worked out at 42.7%.
With `O=[N+]([O-])c1ccc2nc(-c3nc4ccc([N+](=O)[O-])cc4n3Cc3nnc(Nc4ccccc4)s3)n(Cc3nnc(Nc4ccccc4)s3)c2c1`, in the experiment on Saccharomyces cerevisiae, the inhibition worked out at 89.1%. In addition, the IC50 in experiment [1] stood at 5270 nM.
With `NNC(=O)Cn1c(-c2nc3ccccc3n2CC(=O)NN)nc2ccccc21`, in the experiment on Saccharomyces cerevisiae, the inhibition came out at 45.8%.
`Sc1nnc(Cn2c(-c3nc4ccccc4n3Cc3nnc(S)n3-c3ccccc3)nc3ccccc32)n1-c1ccccc1` had an inhibition in the experiment on Saccharomyces cerevisiae of 100%. For the same compound, the IC50 in experiment [1] was 3010 nM.
In the same order, the values of `O=C(Cn1c(-c2nc3ccc([N+](=O)[O-])cc3n2CC(=O)NNC(=S)NCc2ccccc2)nc2ccc([N+](=O)[O-])cc21)NNC(=S)NCc1ccccc1` are 100% and 490 nM.
Take `O=[N+]([O-])c1ccc2nc(-c3nc4ccc([N+](=O)[O-])cc4n3Cc3nnc(NCc4ccccc4)s3)n(Cc3nnc(NCc4ccccc4)s3)c2c1`: in the experiment on Saccharomyces cerevisiae, the inhibition was 48.4%.
The same measure, in the same setting: then `O=C(Cn1c(-c2nc3ccccc3n2CC(=O)NNC(=S)NCc2ccccc2)nc2ccccc21)NNC(=S)NCc1ccccc1`, with 23.2%; and `O=[N+]([O-])c1ccc2nc(-c3nc4ccc([N+](=O)[O-])cc4n3Cc3nnc(S)n3Cc3ccccc3)n(Cc3nnc(S)n3Cc3ccccc3)c2c1`, with 35.8%.
For the compound `NNC(=O)Cn1c(-c2nc3ccc([N+](=O)[O-])cc3n2CC(=O)NN)nc2ccc([N+](=O)[O-])cc21`, the inhibition with Saccharomyces cerevisiae came to 100%. In experiment [1], this compound returned an IC50 of 440 nM.
In the same order, the values of `O=[N+]([O-])c1ccc2nc(-c3nc4ccc([N+](=O)[O-])cc4[nH]3)[nH]c2c1` are 100% and 540 nM.
In the same order, the values of `O=C(Cn1c(-c2nc3ccc([N+](=O)[O-])cc3n2CC(=O)NNC(=S)Nc2ccccc2)nc2ccc([N+](=O)[O-])cc21)NNC(=S)Nc1ccccc1` are 100% and 1240 nM.
Regarding `O=C(Cn1c(-c2nc3ccccc3n2CC(=O)NNC(=S)Nc2ccccc2)nc2ccccc21)NNC(=S)Nc1ccccc1`, the inhibition in the experiment on Saccharomyces cerevisiae came out at 39.6%.
Turning to `C[C@H]1O[C@H](O[C@H]2[C@H](O)[C@@H](O)[C@@H](O[C@H]3[C@H](O)[C@@H](O)C(O)O[C@@H]3CO)O[C@@H]2CO)[C@H](O)[C@@H](O)[C@@H]1N[C@H]1C=C(CO)[C@@H](O)[C@H](O)[C@H]1O` (stereo partly drawn) [ACARBOSE], the inhibition in the experiment with Saccharomyces cerevisiae was 83.3%. In experiment [1], this compound yielded an IC50 of 13300 nM.
For `O=[N+]([O-])c1ccc2nc(-c3nc4ccc([N+](=O)[O-])cc4n3Cc3nnc(S)n3-c3ccccc3)n(Cc3nnc(S)n3-c3ccccc3)c2c1`, in the experiment with Saccharomyces cerevisiae, the inhibition is 23.7%.
